{"source": "patent US20160074517A1", "about": "“AQUEOUS FORMULATIONS OF SPARINGLY WATER-SOLUBLE ACTIVE INGREDIENTS COMPRISING AS SOLUBILIZER A MIXTURE OF POLOXAMERS DIFFERING IN HYDROPHOBICITY” (BASF SE, priority 2013, published 2016)", "assay": "Solubilization of sparingly water-soluble active ingredient in aqueous poloxamer formulations, quantified by UV/Vis spectroscopy", "assay_type": "physicochemical", "description": "General procedure for the preparation of the aqueous formulations: […]\nThe data in % by weight in the tables below refer to the total amount of the aqueous formulation.\nComponents A and B in the amounts stated below in each case and also 2% by weight of active ingredient were dissolved in water (at 20° C. and ambient pressure).\nThe sample was stirred at 20° C. for 24 h (magnetic stirrer 500 rpm) and then filtered through an injection filter (PVDF filter membrane, 0.45 μm pore size).\nThe active ingredient quantification takes place via UV/Vis spectroscopy. For this, the samples were diluted with an organic solvent in which the active ingredient dissolves to at least 10 000 ppm (1% by weight) (ethanol).\nBy contrast, the solubilizing effect of a 5% strength by weight aqueous solution of PE10400 as individual component was stipulated as standard with the value 1 and the solubilizing effect of the mixtures was determined against this standard.\nThe solubilizing effect of a 5% strength by weight aqueous solution of PE 10400 was again selected as standard 1.", "data": [{"smiles": "Cn1cc(C(=O)Nc2ccccc2-c2cc(F)c(F)c(F)c2)c(C(F)F)n1", "note": "[fluxapyroxad]", "values": [{"measurement": "solubility in a 5% strength by weight aqueous solution of PE 4300 (component B)", "setting": "5% by weight PE 4300 in water, 20° C., 24 h stirring, filtered 0.45 μm", "value": 28, "unit": "ppm"}, {"measurement": "solubility in a 5% strength by weight aqueous solution of PE 6200 (component B)", "setting": "5% by weight PE 6200 in water, 20° C., 24 h stirring, filtered 0.45 μm", "value": 31, "unit": "ppm"}, {"measurement": "solubility in a 5% strength by weight aqueous solution of PE 10400 (component A)", "setting": "5% by weight PE 10400 in water, 20° C., 24 h stirring, filtered 0.45 μm", "value": 710, "unit": "ppm"}, {"measurement": "solubility in pure water", "setting": "pure water", "value": 5, "unit": "ppm"}]}]}
